In PubChem BioAssay AID1259407 (Chemical Carcinogenesis Research Information System (CCRIS), 2018):
Active and inactive are the calls of the source. No rule for the calls is given here.

Tested on: CCRIS mutagenicity, Ames/micronucleus/aberration tests
Assay: CCRIS mutagenicity studies
[1] = Test System: AMES SALMONELLA TYPHIMURIUM, Strain/Indicator: TA98, Metabolic Activation: NONE, Method: STANDARD PLATE
[2] = Test System: AMES SALMONELLA TYPHIMURIUM, Strain/Indicator: TA100, Metabolic Activation: NONE, Method: STANDARD PLATE
[3] = Test System: AMES SALMONELLA TYPHIMURIUM, Strain/Indicator: TA102, Metabolic Activation: NONE, Method: STANDARD PLATE
[4] = Test System: AMES SALMONELLA TYPHIMURIUM, Strain/Indicator: TA1535, Metabolic Activation: NONE, Method: STANDARD PLATE
[5] = Test System: AMES SALMONELLA TYPHIMURIUM, Strain/Indicator: TA1537, Metabolic Activation: NONE, Method: STANDARD PLATE
[6] = Test System: AMES SALMONELLA TYPHIMURIUM, Strain/Indicator: TA98, Metabolic Activation: RAT, LIVER, S-9, AROCLOR 1254, Method: STANDARD PLATE
[7] = Test System: AMES SALMONELLA TYPHIMURIUM, Strain/Indicator: TA100, Metabolic Activation: RAT, LIVER, S-9, AROCLOR 1254, Method: STANDARD PLATE
[8] = Test System: AMES SALMONELLA TYPHIMURIUM, Strain/Indicator: TA1535, Metabolic Activation: RAT, LIVER, S-9, AROCLOR 1254, Method: STANDARD PLATE
[9] = Test System: AMES SALMONELLA TYPHIMURIUM, Strain/Indicator: TA1537, Metabolic Activation: RAT, LIVER, S-9, AROCLOR 1254, Method: STANDARD PLATE

`CC(C)[C@]12CC(=O)[C@H](C)[C@H]1C2` was tested, and the mutagenic call (Test System: AMES SALMONELLA TYPHIMURIUM, Strain/Indicator: TA98, Metabolic Activation: HAMSTER LIVER S-9, AROCLOR 1254, Method: STANDARD PLATE) was “inactive; negative”, the mutagenic call [1] was “inactive; negative” and the mutagenic call (Test System: AMES SALMONELLA TYPHIMURIUM, Strain/Indicator: TA98, Metabolic Activation: RAT LIVER S-9, AROCLOR 1254, Method: STANDARD PLATE) was “inactive; negative”. For the same molecule, the mutagenic call (Test System: AMES SALMONELLA TYPHIMURIUM, Strain/Indicator: TA100, Metabolic Activation: HAMSTER LIVER S-9, AROCLOR 1254, Method: STANDARD PLATE) was “inactive; negative”, the mutagenic call [2] was “inactive; negative” and the mutagenic call (Test System: AMES SALMONELLA TYPHIMURIUM, Strain/Indicator: TA100, Metabolic Activation: RAT LIVER S-9, AROCLOR 1254, Method: STANDARD PLATE) was “inactive; negative”. The mutagenic call (Test System: AMES SALMONELLA TYPHIMURIUM, Strain/Indicator: TA102, Metabolic Activation: HAMSTER LIVER S-9, AROCLOR 1254, Method: STANDARD PLATE) was “inactive; negative”, the mutagenic call [3] was “inactive; negative” and the mutagenic call (Test System: AMES SALMONELLA TYPHIMURIUM, Strain/Indicator: TA102, Metabolic Activation: RAT LIVER S-9, AROCLOR 1254, Method: STANDARD PLATE) was “inactive; negative”. For the same molecule, the mutagenic call (Test System: AMES SALMONELLA TYPHIMURIUM, Strain/Indicator: TA1535, Metabolic Activation: HAMSTER LIVER S-9, AROCLOR 1254, Method: STANDARD PLATE) was “inactive; negative”, the mutagenic call [4] was “inactive; negative” and the mutagenic call (Test System: AMES SALMONELLA TYPHIMURIUM, Strain/Indicator: TA1535, Metabolic Activation: RAT LIVER S-9, AROCLOR 1254, Method: STANDARD PLATE) was “inactive; negative”. For the same molecule, the mutagenic call (Test System: AMES SALMONELLA TYPHIMURIUM, Strain/Indicator: TA1537, Metabolic Activation: HAMSTER LIVER S-9, AROCLOR 1254, Method: STANDARD PLATE) was “inactive; negative”, the mutagenic call [5] was “inactive; negative” and the mutagenic call (Test System: AMES SALMONELLA TYPHIMURIUM, Strain/Indicator: TA1537, Metabolic Activation: RAT LIVER S-9, AROCLOR 1254, Method: STANDARD PLATE) was “inactive; negative”. The mutagenic call (Test System: Mouse lymphoma, Strain/Indicator: L5178Y (tk+/tk-), Metabolic Activation: None, Method: Suspension/plate) was “inactive; negative” and the mutagenic call (Test System: Mouse lymphoma, Strain/Indicator: L5178Y (tk+/tk-), Metabolic Activation: Rat, Liver, S-9, Aroclor 1254, Method: Suspension/plate) was “active; equivocal (previous evaluation positive)”.

With `Brc1ccc(C2CO2)cc1` (stereo not drawn) the mutagenic call (Test System: E. COLI, Strain/Indicator: WP2 UVRA, Metabolic Activation: NONE, Method: STANDARD PLATE) was “active; positive”.

For `CN1Cc2c(N)cccc2C(c2ccccc2)C1` (stereo not drawn), the mutagenic call [1] was “inactive; negative”, the mutagenic call [6] was “inactive; negative” and the mutagenic call [2] was “inactive; negative”. The mutagenic call [7] was “inactive; negative”, the mutagenic call [4] was “inactive; negative” and the mutagenic call [8] was “inactive; negative”. For the same molecule, the mutagenic call [5] was “inactive; negative” and the mutagenic call [9] was “inactive; negative”.

For `COc1ccc(C=CC(=O)c2ccccc2)cc1`, the mutagenic call [1] was “inactive; negative”, the mutagenic call [6] was “inactive; negative” and the mutagenic call [2] was “inactive; negative”. For the same molecule, the mutagenic call [7] was “inactive; negative”.

`Nc1cc([N+](=O)[O-])cc([N+](=O)[O-])c1CO` was tested, and the mutagenic call (End Point: In vitro chromosomal aberrations, Test System: V79 Chinese hamster fibroblasts, Metabolic Activation: None) was “inactive; negative”, the mutagenic call (Test System: Ames Salmonella typhimurium, Strain/Indicator: TA98, Metabolic Activation: None, Method: Standard plate) was “active; positive” and the mutagenic call (Test System: Ames Salmonella typhimurium, Strain/Indicator: TA98, Metabolic Activation: Rat, Liver, S-9, Method: Standard plate) was “active; positive”. The mutagenic call (Test System: Ames Salmonella typhimurium, Strain/Indicator: TA98NR, Metabolic Activation: None, Method: Standard plate) was “active; positive”, the mutagenic call (Test System: Ames Salmonella typhimurium, Strain/Indicator: TA100, Metabolic Activation: None, Method: Standard plate) was “active; positive” and the mutagenic call (Test System: Ames Salmonella typhimurium, Strain/Indicator: TA100, Metabolic Activation: Rat, Liver, S-9, Method: Standard plate) was “active; positive”.

`Nc1nc(=O)n([C@@H]2O[C@H](CO)[C@@H](O)[C@H]2O)cc1O` was tested, and the mutagenic call (Test System: AMES SALMONELLA TYPHIMURIUM, Strain/Indicator: TA100, Metabolic Activation: NONE, Method: PREINCUBATION) was “inactive; negative”.

For `Cc1nc2c3c(ccc4ccc(O)cc43)ccc2n1C`, the mutagenic call [6] was “active; positive”.

With `NC(Cc1ccc(Cl)cc1)C(=O)O` (stereo not drawn) the mutagenic call (Test System: AMES SALMONELLA TYPHIMURIUM, Strain/Indicator: TA98, Metabolic Activation: NONE) was “inactive; negative”, the mutagenic call (Test System: AMES SALMONELLA TYPHIMURIUM, Strain/Indicator: TA100, Metabolic Activation: NONE) was “inactive; negative” and the mutagenic call (Test System: AMES SALMONELLA TYPHIMURIUM, Strain/Indicator: TA1535, Metabolic Activation: NONE) was “inactive; negative”. For the same molecule, the mutagenic call (Test System: AMES SALMONELLA TYPHIMURIUM, Strain/Indicator: TA1537, Metabolic Activation: NONE) was “inactive; negative”, the mutagenic call (Test System: B. SUBTILIS, Strain/Indicator: BD190 REC, Metabolic Activation: NONE, Method: SPOT TEST) was “inactive; negative” and the mutagenic call (Test System: E.COLI, Strain/Indicator: WP6 POLA, Metabolic Activation: NONE, Method: SPOT TEST) was “inactive; negative”.

With `CCN1CCN=N1` the mutagenic call [4] was “active; positive”.

With `CC(=O)Nc1ccc(/C=C/C(=O)c2ccccc2)cc1` the mutagenic call [1] was “inactive; negative”, the mutagenic call [6] was “active; positive” and the mutagenic call [2] was “active; positive”. For the same molecule, the mutagenic call [7] was “active; positive”.

For `NC(=O)N/N=C/C(=O)O`, the mutagenic call [1] was “inactive; negative”, the mutagenic call [6] was “inactive; negative” and the mutagenic call [2] was “inactive; negative”. For the same molecule, the mutagenic call [7] was “inactive; negative”, the mutagenic call [4] was “inactive; negative” and the mutagenic call [8] was “inactive; negative”. The mutagenic call [5] was “inactive; negative”, the mutagenic call [9] was “inactive; negative” and the mutagenic call (Test System: AMES SALMONELLA TYPHIMURIUM, Strain/Indicator: TA1538, Metabolic Activation: NONE, Method: STANDARD PLATE) was “inactive; negative”. The mutagenic call (Test System: AMES SALMONELLA TYPHIMURIUM, Strain/Indicator: TA1538, Metabolic Activation: RAT, LIVER, S-9, AROCLOR 1254, Method: STANDARD PLATE) was “inactive; negative”.

`NN(Cc1ccccc1)Cc1ccccc1` was tested, and the mutagenic call [2] was “inactive; negative”, the mutagenic call [7] was “inactive; negative” and the mutagenic call [3] was “inactive; negative”. For the same molecule, the mutagenic call (Test System: AMES SALMONELLA TYPHIMURIUM, Strain/Indicator: TA102, Metabolic Activation: RAT, LIVER, S-9, AROCLOR 1254, Method: STANDARD PLATE) was “inactive; negative”.
